In patent publication US11399542B2, “Pesticidally active heterocyclic derivatives with sulfur containing substituents” (SYNGENTA PARTICIPATIONS AG, priority 2017, dated 2022):

How the values were obtained:
Assay type in all cases: in vivo
[1] = test system: Spodoptera littoralis (Egyptian Cotton Leaf Worm); experiment: Example B1: Activity against Spodoptera littoralis, sprayed cotton leaf discs; settings: foliar, 72 h, application rate 200 ppm, L1 larvae on cotton leaf discs, 3 days after infestation, read-out: control (at least one of mortality, anti-feedant effect, growth inhibition)
Method: Cotton leaf discs were placed onto agar in 24-well microtiter plates and sprayed with aqueous test solutions prepared from 10′000 ppm DMSO stock solutions. After drying the leaf discs were infested with five L1 larvae. The samples were assessed for mortality, anti-feeding effect, and growth inhibition in comparison to untreated samples 3 days after infestation. Control of Spodoptera littoralis by a test sample is given when at least one of the categories mortality, anti-feedant effect, and growth inhibition is higher than the untreated sample.

[2] = test system: Spodoptera littoralis (Egyptian Cotton Leaf Worm); experiment: Example B2: Activity against Spodoptera littoralis, systemic via lettuce roots in agar; settings: 144 h, test rate 12.5 ppm, lettuce root uptake, 6 days after infestation, read-out: effect in at least one of the three categories (mortality, anti-feeding, or growth inhibition)
Text: Test compounds were applied by pipette from 10′000 ppm DMSO stock solutions into 24-well plates and mixed with agar. Lettuce seeds were placed onto the agar and the multi well plate was closed by another plate which contained also agar. After 7 days the compound was absorbed by the roots and the lettuce grew into the lid plate. The lettuce leaves were then cut off into the lid plate. Spodoptera eggs were pipetted through a plastic stencil onto a humid gel blotting paper and the lid plate was closed with it. The samples were assessed for mortality, anti-feedant effect and growth inhibition in comparison to untreated samples 6 days after infestation.

[3] = test system: Plutella xylostella (Diamond Back Moth); experiment: Example B3: Activity against Plutella xylostella, artificial diet, L2 larvae; settings: 120 h, application rate 200 ppm, L2 larvae on artificial diet, 5 days after infestation, read-out: effect in at least one of the two categories (mortality or growth inhibition)
Method: (§1) 24-well microtiter plates with artificial diet were treated with aqueous test solutions prepared from 10′000 ppm DMSO stock solutions by pipetting. After drying, the plates were infested with L2 larvae (10 to 15 per well). The samples were assessed for mortality and growth inhibition in comparison to untreated samples 5 days after infestation.

[4] = test system: Diabrotica balteata (Corn Root Worm); experiment: Example B4: Activity against Diabrotica balteata, sprayed maize sprouts; settings: 96 h, application rate 200 ppm, L2 larvae on maize sprouts, 4 days after infestation, read-out: effect in at least one of the two categories (mortality or growth inhibition)
Method: as §1, with “Maize sprouts placed onto an agar layer in 24-well” for “24-well”, “plates” for “plates with artificial diet”, “spraying.” for “pipetting.”, “(6” for “(10”, “10” for “15”, “4” for “5”

[5] = test system: Myzus persicae (Green Peach Aphid); experiment: Example B5: Activity against Myzus persicae, sprayed sunflower leaf discs; settings: foliar, 144 h, application rate 200 ppm, mixed-age aphids on sunflower leaf discs, 6 days after infestation
Method: (§2) Sunflower leaf discs were placed on agar in a 24-well microtiter plate and sprayed with aqueous test solutions prepared from 10′000 ppm DMSO stock solutions. After drying, the leaf discs were infested with an aphid population of mixed ages. The samples were assessed for mortality 6 days after infestation.

[6] = test system: Myzus persicae (Green Peach Aphid); experiment: Example B6: Activity against Myzus persicae, systemic via roots of pea seedlings; settings: 144 h, test rate 24 ppm, pea seedling roots in test solution, 6 days
Method: Roots of pea seedlings infested with an aphid population of mixed ages were placed directly in the aqueous test solutions prepared from 10′000 DMSO stock solutions. The samples were assessed for mortality 6 days after placing seedlings in test solutions.

[7] = test system: Bemisia tabaci (Cotton White Fly); experiment: Example B7: Activity against Bemisia tabaci, sprayed cotton leaf discs; settings: foliar, 144 h, application rate 200 ppm, adult white flies on cotton leaf discs, 6 days after incubation
Method: Cotton leaf discs were placed on agar in 24-well microtiter plates and sprayed with aqueous test solutions prepared from 10′000 ppm DMSO stock solutions. After drying the leaf discs were infested with adult white flies. The samples were checked for mortality 6 days after incubation.

[8] = test system: Frankliniella occidentalis (Western Flower Thrips); experiment: Example B8: Activity against Frankliniella occidentalis, sprayed sunflower leaf discs; settings: foliar, 168 h, application rate 200 ppm, mixed ages on sunflower leaf discs, 7 days after infestation
Method: as §2, with “in” for “in a”, “plates” for “plate”, “[…]” for “10′000 ppm”, “drying” for “drying,”, “a Frankliniella” for “an aphid”, “7” for “6”

[9] = test system: Euschistus heros (Neotropical Brown Stink Bug); experiment: Example B9: Activity against Euschistus heros, sprayed soybean leaf; settings: 120 h, application rate 200 ppm, N2 nymphs on soybean leaf, 5 days after infestation, read-out: effect in at least one of the two categories (mortality or growth inhibition)
Method: Soybean leaf on agar in 24-well microtiter plates were sprayed with aqueous test solutions prepared from 10′000 ppm DMSO stock solutions. After drying the leaf were infested with N2 nymphs. The samples were assessed for mortality and growth inhibition in comparison to untreated samples 5 days after infestation.

[10] = test system: Aedes aegypti (Yellow Fever Mosquito); experiment: Example B11: Activity against Aedes aegypti, dry deposit in tissue culture plates; settings: 200 ppm in ethanol; adult females; after 48 h and/or 24 h
Method: Test solutions, at an application rate of 200 ppm in ethanol, were applied to 12 well tissue culture plates. Once the deposits were dry, five, two to five day old adult female Aedes aegypti were added to each well, and sustained with a 10% sucrose solution in a cotton wool plug. Assessment of knockdown was made one hour after introduction, and mortality was assessed at 24 and 48 hours after introduction.

[11] = test system: Tetranychus urticae (Two-Spotted Spider Mite); experiment: Example B10: Activity against Tetranychus urticae, sprayed bean leaf discs; settings: foliar, 192 h
Method: Bean leaf discs on agar in 24-well microtiter plates were sprayed with aqueous test solutions prepared from 10′000 ppm DMSO stock solutions. After drying the leaf discs were infested with a mite population of mixed ages. The samples were assessed for mortality on mixed population (mobile stages) 8 days after infestation.

Structure (SMILES): CCS(=O)(=O)c1cc2c(cc1-c1nc3cc(C(F)(F)F)cnc3n1C)n(C)c(=O)n2C [Compound P3, 5-ethylsulfonyl-1,3-dimethyl-6-[3-methyl-6-(trifluoromethyl)imidazo[4,5-b]pyridin-2-yl]benzimidazol-2-one]
- percent control (mortality, anti-feedant effect or growth inhibition) at 200 ppm [1]: ≥ 80%
- percent effect (mortality, anti-feeding or growth inhibition) at 12.5 ppm [2]: ≥ 80%
- percent effect (mortality or growth inhibition) at 200 ppm [3]: ≥ 80%
- percent effect (mortality or growth inhibition) at 200 ppm [4]: ≥ 80%
- mortality at 200 ppm [5]: ≥ 80%
- mortality at 24 ppm [6]: ≥ 80%
- mortality at 200 ppm [7]: ≥ 80%
- mortality at 200 ppm [8]: ≥ 80%
- percent effect (mortality or growth inhibition) at 200 ppm [9]: ≥ 80%
- control of Aedes aegypti [10]: at least 80%

Structure (SMILES): CCn1c(=O)n(C)c2cc(S(=O)(=O)CC)c(-c3nc4cc(C(F)(F)F)cnc4n3C)cc21 [Compound P6, 1-ethyl-5-ethylsulfonyl-3-methyl-6-[3-methyl-6-(trifluoromethyl)imidazo[4,5-b]pyridin-2-yl]benzimidazol-2-one]
- percent control (mortality, anti-feedant effect or growth inhibition) at 200 ppm [1]: ≥ 80%
- percent effect (mortality or growth inhibition) at 200 ppm [3]: ≥ 80%
- percent effect (mortality or growth inhibition) at 200 ppm [4]: ≥ 80%
- mortality at 200 ppm [5]: ≥ 80%
- mortality at 24 ppm [6]: ≥ 80%
- mortality at 200 ppm [7]: ≥ 80%
- percent effect (mortality or growth inhibition) at 200 ppm [9]: ≥ 80%
- mortality at 200 ppm [11]: ≥ 80%
